# Source: patent publication US4568687A, “N-[2-4-(1H-Imidazol-1-yl)alkyl]-arylamides and pharmaceutical compositions” (American Cyanamid Company, priority 1984, dated 1986)
# Counter-ions that a name gives are not always drawn.
# Key:
# thromboxane synthetase = biological target: T1, thromboxane synthetase (Rattus norvegicus, UniProt P49430); test: Inhibition of thromboxane (TXB2) formation in washed rat platelets, TXB2 by direct radioimmunoassay; assay type: cell-based, Okamoto-Aoki spontaneously hypertensive rats (SHR); conditions: 10 min; Dose 10^-4 (unit inferred); SHR platelet suspension, 10 minutes at 37° C.
# T1 construct: The platelets were isolated by centrifuging the PRP for 10 minutes; endogenous in cells; host or cells: washed platelets from arterial blood of Okamoto-Aoki spontaneously hypertensive rats (rats from Taconic Farms)
# T1 sequence (P49430 1-533): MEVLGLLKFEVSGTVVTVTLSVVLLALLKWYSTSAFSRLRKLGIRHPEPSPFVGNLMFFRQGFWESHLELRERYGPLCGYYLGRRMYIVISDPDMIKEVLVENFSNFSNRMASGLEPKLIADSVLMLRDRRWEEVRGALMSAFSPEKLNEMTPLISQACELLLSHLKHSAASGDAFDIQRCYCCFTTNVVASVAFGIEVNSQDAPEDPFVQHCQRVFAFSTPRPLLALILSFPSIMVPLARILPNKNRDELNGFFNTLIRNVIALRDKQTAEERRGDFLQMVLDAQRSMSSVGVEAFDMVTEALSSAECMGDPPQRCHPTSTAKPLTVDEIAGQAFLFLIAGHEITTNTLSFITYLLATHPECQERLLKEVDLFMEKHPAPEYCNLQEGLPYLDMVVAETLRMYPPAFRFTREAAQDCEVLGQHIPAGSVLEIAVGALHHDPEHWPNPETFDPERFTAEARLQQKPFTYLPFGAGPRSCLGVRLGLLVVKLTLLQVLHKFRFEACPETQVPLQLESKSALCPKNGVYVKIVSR
# Procedure: Under urethan anesthesia, […] of arterial blood was collected in one ml. of 3.2% sodium citrate in a polystyrene tube from Okamoto-Aoki spontaneously hypertensive rats (SHR) (Taconic Farms, Germantown, NY) between 19 and 24 weeks in age. The blood was diluted with 3 ml. cold saline and centrifuged at room temperature for 15 minutes at 460×g. The platelet rich plasma (PRP) was separated. The platelets were isolated by centrifuging the PRP for 10 minutes at 1060×g and were washed in 4 ml. cold oxygenated Krebs phosphate buffer, pH 7.4. The chilled patelets recovered from centrifuging at 800×g for 10 minutes were resuspended in oxygenated Krebs phosphate buffer and diluted to contain 4.5-6.0×10^4 platelets/μl.
# The inhibition of thromboxane (TX) formation was studied by determining the […] of thromboxane B2 (TXB2), the stable hydrolysis product of TXA2. Assay samples, prepared on ice, contained 200 μl platelet suspension, 50 μl saline, and 50 μl vehicle or drug under study (OKY-1581, UK-37248-01, 1-benzylimidazole, or indomethacin). The samples were incubated for 10 minutes at 37° C. in a metabolic shaker. The reaction was terminated by immersing the tubes in an ice bath and adding 50 μl of 0.5M citric acid. The samples were centrifuged for 10 minutes in a refrigerated centrifuge and the supernatants thus obtained were decanted and stored at -20° C. The TXB2 content for each sample was determined by a direct radioimmunoassay (RIA) utilizing a TXB2 specific RIA kit purchased from New England Nuclear, Boston, MA and expressed as pg TXB2 formed minute^-1 sample^-1, from which the percent inhibition of TXB2 formation was calculated.
# [1] = system: spontaneously hypertensive rats of the Okamoto strain; test: Hypotensive activity: mean arterial blood pressure (MABP) in spontaneously hypertensive rats, method of Chan and Poorvin; assay type: in vivo; conditions: gavage, 100 mg/kg or less, two doses 24 hours apart, sodium chloride loading; 28 hours after initial dose; average of 1-4 rats; initial average 160±1.5 mm; active if ≤116 (1 rat), ≤122 (2 rats), ≤128 (3 rats)
# Procedure: The novel compounds of the present invention are also active hypotensive agents and were tested for hypotensive activity by the method of P. S. Chan and D. Poorvin, Clinical and Experimental Hypertension, 1 (6), 817-830 (1979). Male, 16 week old, spontaneously hypertensive rats of the Okamoto strain, from Taconic Farms, Germantown, N.Y. having an average mean arterial blood pressure of 160±1.5 mm of mercury are used in the test. […] A rat is dosed by gavage with a test compound, suspended in 2% pre-boiled starch at a concentration of 50 mg/ml, at a dose of 100 mg/kg of body weight or less, with 0.9% sodium chloride loading at a dose of 25 ml/kg of body weight. A second identical dose of the test compound, without sodium chloride loading is given 24 hours later. At 28 hours after the initial dose, the mean arterial blood pressure (MABP) is measured by the method of Chan and Poorvin vide supra. The procedure is repeated in a second and third rat when necessary. Based on the data obtained and using the three-stage "sequential probability ratio test" statistical method, the criteria for activity or retest are as follows:
# If the blood pressure in the first rat is ≤116 mm mercury the compound is considered active. If the blood pressure is between […], a second rat is used. If the average blood pressure of the first and second rats is ≤122 mm the compound is considered active. If the average blood pressure is between 123 and 137 mm, a third rat is used. If the average blood pressure of the three rats is ≤128 mm the compound is considered active. The results of this test on representative compounds of the present invention appear in Table II below.
SMILES,inhibition at 100 µM (thromboxane synthetase) [%],MABP/mm Hg [1] [mm Hg]
O=C(NCCCn1ccnc1)c1ccccc1-c1ccccc1 [2-phenyl-N--[3-(1H--imidazol-1-yl)propyl]benzamide],95,124
"Cc1ccc(CC(=O)NCCCn2ccnc2)cc1 [N--[3-(1H--imidazol-1-yl)propyl]-4-methylbenzeneacetamide, hemifumarate]",,109
Cc1cn(CCCNC(=O)c2cccc(Cl)c2)cn1 [3-chloro-N--[3-(4-methyl-1H--imidazol-1-yl)propyl]benzamide],84,122
O=C(NCCCn1ccnc1)c1ccc(Cl)cc1 [4-chloro-N--[3-(1H--imidazol-1-yl)propyl]benzamide],95,126
"O=C1c2ccccc2C(=O)N1CCCCn1ccnc1 [2-[4-(1H-Imidazol-1-yl)butyl]-1H-isoindole-1,3(2H)-dione]",99,120
"O=C1c2ccccc2C(=O)N1CCCCCCn1ccnc1 [2-[6-(1H--imidazol-1-yl)hexyl]-1H--isoindole-1,3(2H)--dione]",,110
"O=C(NCCCn1ccnc1-c1ccccc1)c1ccc(Br)cc1 [4-bromo-N--[3-(2-phenyl-1H--imidazol-1-yl)propyl]benzamide, fumarate]",,115
"CC(CCNC(=O)c1ccc(Cl)c(Cl)c1)n1ccnc1 (stereo not shown) [3,4-dichloro-N--[3-(1H--imidazol-1-yl)butyl]benzamide]",86,123
Nc1ccc(Cl)cc1C(=O)NCCCn1ccnc1 [2-amino-5-chloro-N--[3-(1H--imidazol-1-yl)propyl]benzamide],96,113
Cc1cn(CCCNC(=O)c2ccc(Cl)cc2)cn1 [4-chloro-N--[3-(4-methyl-1H--imidazol-1-yl)propyl]benzamide],93,112
Cc1nccn1CCCNC(=O)c1ccc(Cl)cc1 [4-chloro-N--[3-(2-methyl-1H--imidazol-1-yl)propyl]benzamide],,121
O=C(NCCCCn1ccnc1)c1ccc(C(F)(F)F)cc1 [4-trifluoromethyl-N--[4-(1H--imidazol-1-yl)butyl]benzamide fumarate],97,123
O=C(NCCCn1ccnc1)c1ccccc1 [N-[3-(1H-Imidazol-1-yl)propyl]benzamide],96.3,128
O=C(NCCCn1ccnc1)c1ccc2ccccc2c1 [N--[3-(1H--imidazol-1-yl)propyl]-2-naphthalenecarboxamide],97,127
"CC(CCN1C(=O)c2ccccc2C1=O)n1ccnc1 (stereo not shown) [2-[3-(1H--imidazol-1-yl)butyl]-1H--isoindole-1,3(2H)--dione]",,124
Cc1cc(Cl)cc(C(=O)NCCCn2ccnc2)c1N [2-amino-5-chloro-3-methyl-N--[3-(1H--imidazol-1-yl)propyl]benzamide dihydrochloride salt],80,125
O=C(NCCCn1ccnc1)c1cccc(Cl)c1 [3-Chloro-N-[3-(1H-imidazol-1-yl)propyl]benzamide],75.4,124
Cc1cn(CCCNC(=O)c2ccc(C(F)(F)F)cc2)cn1 [4-trifluoromethyl-N--[3-(4-methyl-1H--imidazol-1-yl)propyl]benzamide],92,114
